Assay results taken from patent publication US11318139B2, “Methods for treating brain metastases using combinations of anti-P13K and anti-mTOR agents” (Dana-Farber Cancer Institute, Inc., priority 2016, dated 2022).

Assays:
[1] = statement with literature citation; cited from earlier work
[2] = system: PI3K pathway signaling (pAKT, pS6RP, p4EBP1), Ki67 and cleaved caspase-3 in DF-BM355 tumors; experiment: Pharmacodynamic IHC / Western blot analysis of treated DF-BM355 tumors; conditions: IHC after 4 days of treatment
Description: Diaminobenzidine (DAB), brightfield staining was performed according to standard protocols using DAB EnVision+™ System (Dako) on paraffin sections. Briefly five micron thick sections were deparaffinized with xylene, followed by gradation washes in 100%, 95%, 80% ethyl alcohol before performing heat antigen retrieval in 10 mM sodium citrate buffer (pH 6.0) for 20 minutes. Subsequently, sections were treated with peroxidase block (Dako) for ten minutes followed by overnight incubation at 4° C. with the following primary antibodies: polyclonal PTEN (Cell Signaling #9559), pS6RP-Ser235/236 (Cell Signaling #2211), p4EBP1-Thr37/46 (Cell Signaling #2855), or cleaved caspase-3 (Cell Signaling #9664) from Cell Signaling; estrogen receptor (ER) (ThermoScientific SP1) or HER2 (ThermoScientific SP3) from ThermoScientific; or progesterone receptor (PR) (Dako PgR 636), CK7 (Dako), GFAP (Dako #z0334), OLIG2 (Dako), or monoclonal mouse anti-Ki67 (Dako MIB-1 or Vector lab #VP K-451) from Dako or Vector lab. […]
Ki67 and cleaved caspase-3 indexes were calculated as a percentage of positive cells in 4-5 random areas of each sample. Images were captured at 40× or 60× magnification and quantifications of Ki67 and cleaved caspase-3 immunoreactivity were performed using the ImmunoRatio plugin provided in the Image J software. […]

[3] = system: DF-BM354; experiment: In vivo treatment of orthotopic HER2-positive BCBM patient-derived xenograft DF-BM354 (bioluminescence imaging, survival); design: species or system mice; conditions: BKM120 PO 30 mg/kg QD; RAD001 PO 7.5 mg/kg QD; MEK162 PO 15 mg/kg; GNE-317 PO 40 mg/kg QD
Description: Luciferase-expressing tumors were then propagated in mice.
The signals were analyzed with CareStream MI Software.
All compounds were purchased from Haoyuan ChemExpress Co.
GNE-317 obtained from Genetcch was dissolved in 0.5% methylcellulose/0.2% Tween 80 and given oral once/day at 40 mg/kg.

Structure (SMILES)	blood-brain barrier penetration [1]	number of Ki67-positive cells (cell proliferation) in DF-BM355 tumors [2]	therapeutic response / tumor growth of DF-BM354 (bioluminescence imaging, survival) [3]
Nc1cc(C(F)(F)F)c(-c2cc(N3CCOCC3)nc(N3CCOCC3)n2)cn1 [BKM120, 5-(2,6-dimorpholin-4-ylpyrimidin-4-yl)-4-(trifluoromethyl)pyridin-2-amine]	permeates the blood-brain barrier	did not decrease	neither BKM120 nor RAD001 monotherapy had meaningful effects
COC1(c2sc3c(N4CCOCC4)nc(-c4cnc(N)nc4)nc3c2C)COC1 [GNE-317, 5-(6-(3-methoxyoxetan-3-yl)-7-methyl-4-morpholinothieno[3,2-d]pyrimidin-2-yl)pyrimidin-2-amine]	effectively crossing the blood brain barrier	–	marked regression
CO[C@H]1C[C@@H]2CC[C@@H](C)[C@@](O)(O2)C(=O)C(=O)N2CCCC[C@H]2C(=O)O[C@H]([C@H](C)C[C@@H]2CC[C@@H](OCCO)[C@H](OC)C2)CC(=O)[C@H](C)/C=C(\C)[C@@H](O)[C@@H](OC)C(=O)[C@H](C)C[C@H](C)/C=C/C=C/C=C/1C [RAD001]	demonstrated blood-brain barrier (BBB) penetrance	–	neither BKM120 nor RAD001 monotherapy had meaningful effects
